Test results taken from US10988478B1, “Pyrazolo[1,5a]pyrimidine derivatives as IRAK4 modulators” (Genentech, Inc., priority 2015, dated 2021).

biological target: human IRAK4 (Homo sapiens (Human), UniProt Q9NWZ3); test: IRAK4 kinase inhibition, Transcreener fluorescence polarization ADP assay; format: biochemical; details: recombinant full-length His6-IRAK4; 125 uM ATP; 90 min; Ki computed using ATP Km 642 uM
Experimental: Compounds were assayed for inhibition of human IRAK4 and IRAK1 catalytic activity using recombinant enzyme produced from insect cells. Full-length IRAK4 protein, carrying an N-terminal His6-Tag, was obtained from Life Technologies (Carlsbad, Calif., USA). The IRAK1 construct was produced internally and was comprised of IRAK1 residues Arg194 to Ser712, preceded by an NH2-terminal His6 tag and the coding sequence for glutathione-S-transferase.

human IRAK4, sequence (Q9NWZ3 whole entry, the tested form may be a part): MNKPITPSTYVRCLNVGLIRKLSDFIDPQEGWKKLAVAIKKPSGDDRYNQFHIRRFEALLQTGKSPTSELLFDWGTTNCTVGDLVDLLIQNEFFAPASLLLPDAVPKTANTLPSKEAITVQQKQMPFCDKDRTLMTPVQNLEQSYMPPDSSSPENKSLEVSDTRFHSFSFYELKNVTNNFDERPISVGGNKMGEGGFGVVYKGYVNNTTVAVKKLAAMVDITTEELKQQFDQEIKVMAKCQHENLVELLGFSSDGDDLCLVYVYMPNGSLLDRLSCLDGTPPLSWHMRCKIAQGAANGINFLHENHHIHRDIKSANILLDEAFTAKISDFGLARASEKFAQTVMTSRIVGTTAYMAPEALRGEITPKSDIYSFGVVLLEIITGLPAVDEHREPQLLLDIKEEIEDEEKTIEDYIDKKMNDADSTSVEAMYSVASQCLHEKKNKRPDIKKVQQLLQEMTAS

SMILES | Ki [nM]
CC1(C)Cc2cc(NC(=O)c3cnn4cccnc34)c(N3CC[C@@](C)(CO)C3)cc2O1 [Example 95, (R)—N-(6-(3-(hydroxymethyl)-3-methylpyrrolidin-1-yl)-2,2-dimethyl-2,3-dihydrobenzofuran-5-yl)pyrazolo[1,5-a]pyrimidine-3-carboxamide] | 25
CNC[C@H]1OC[C@H](c2cc3c(cc2NC(=O)c2cnn4cccnc24)CC(C)(C)O3)CO1 [Example 3, Trans-N-[2,2-dimethyl-6-[2-(methylaminomethyl)-1,3-dioxan-5-yl]-3H-benzofuran-5-yl]pyrazolo[1,5-a]pyrimidine-3-carboxamide] | 150
CC1(C)Cc2cc(NC(=O)c3cnn4cccnc34)c(N3CC4CC(F)(F)C4C3)cc2O1 (centres unmarked) [Example 199, N-(6-(6,6-difluoro-3-azabicyclo[3.2.0]heptan-3-yl)-2,2-dimethyl-2,3-dihydrobenzofuran-5-yl)pyrazolo[1,5-a]pyrimidine-3-carboxamide] | 170
O=C(Nc1cc2c(cc1N1CCOCC1)C(=O)N(C1COC1)C2)c1cnn2cccnc12 [Example 251, N-[6-Morpholino-2-(oxetan-3-yl)-1-oxo-isoindolin-5-yl]pyrazolo[1,5-a]pyrimidine-3-carboxamide] | 29
CN1CC2(Cc3cc(NC(=O)c4cnn5cccnc45)c(N4CCOCC4)cc3O2)C1 [Example 146, N-(1-methyl-6′-morpholino-3′H-spiro[azetidine-3,2′-benzofuran]-5′-yl)pyrazolo[1,5-a]pyrimidine-3-carboxamide] | 27
O=C(Nc1cc2c(cc1N1CCOCC1)OC1(C2)CN(CC(F)F)C1)c1cnn2cccnc12 [Example 147, N-(1-(2,2-Difluoroethyl)-6′-morpholino-3′H-spiro[azetidine-3,2′-benzofuran]-5′-yl)pyrazolo[1,5-a]pyrimidine-3-carboxamide] | 23
CC1(C)Cc2cc(NC(=O)c3cnn4cccnc34)c(OC[C@@H]3CCNC(=O)C3)cc2O1 [Example 305] | 29
CC1(C)Cc2cc(NC(=O)c3cnn4cccnc34)c([C@@H]3C[C@H]3CO)cc2O1 [Example 397, N-(6-((1R,2R)-2-(Hydroxymethyl)cyclopropyl)-2,2-dimethyl-2,3-dihydrobenzofuran-5-yl)pyrazolo[1,5-a]pyrimidine-3-carboxamide] | 88
CC(C)(O)[C@]1(C)Cc2cc(NC(=O)c3cnn4cccnc34)c(N3CCN(CC(F)F)CC3)cc2O1 [Example 361, (S)—N-(6-(4-(2,2-Difluoroethyl)piperazin-1-yl)-2-(2-hydroxypropan-2-yl)-2-methyl-2,3-dihydrobenzofuran-5-yl)pyrazolo[1,5-a]pyrimidine-3-carboxamide] | 9.2
Cc1cnc2c(C(=O)Nc3cc4c(cc3N3CCC(CO)CC3)OC(C)(CO)C4)cnn2c1 (centres unmarked) [Example 16, N-(2-(Hydroxymethyl)-6-(4-(hydroxymethyl)piperidin-1-yl)-2-methyl-2,3-dihydrobenzofuran-5-yl)-6-methylpyrazolo[1,5-a]pyrimidine-3-carboxamide] | 1.9
CC(=O)c1cnc2c(C(=O)Nc3cc4c(cc3N3CCOCC3)O[C@](C)(CO)C4)cnn2c1 [Example 86, (S)-6-Acetyl-N-(2-(hydroxymethyl)-2-methyl-6-morpholino-2,3-dihydrobenzofuran-5-yl)pyrazolo[1,5-a]pyrimidine-3-carboxamide] | 49
CC(C)(O)[C@]1(C)Cc2cc(NC(=O)c3cnn4cccnc34)c(N3CCOCC3)cc2O1 [Example 158, (S)—N-(2-(2-Hydroxypropan-2-yl)-2-methyl-6-morpholino-2,3-dihydrobenzofuran-5-yl)pyrazolo[1,5-a]pyrimidine-3-carboxamide] | 27
CC[C@]1(C)Cc2cc(NC(=O)c3cnn4cccnc34)c(N3CCOCC3)cc2O1 (single isomer, unassigned) [Example 97] | 7.2
CC1(C)Cc2cc(NC(=O)c3cnn4cccnc34)c(N3CC[N+](C)(CC(N)=O)CC3)cc2O1 [Example 408, 1-(2-Amino-2-oxoethyl)-4-(2,2-dimethyl-5-(pyrazolo[1,5-a]pyrimidine-3-carboxamido)-2,3-dihydrobenzofuran-6-yl)-1-methylpiperazin-1-ium] | 46
